Publication PMC12775434, “Ultra-large virtual screening unveils potent agonists of the neuromodulatory orphan receptor GPR139” (Nature Communications, 2025)
Several values for one entry are separate records, joined by “and”; a condition that tells them apart may be missing. Identical values can stand only once. Like-named read-outs stand apart in the source and are kept apart here.

Columns and labels:
Assay type in all cases: cell-based
[1] = target: T1, human muscarinic acetylcholine M1 receptor (M1R) (Homo sapiens, UniProt P11229); experiment: Ca2+ mobilization counter-screen in M1R-CHOk1 cells
T1 sequence (P11229 1-460): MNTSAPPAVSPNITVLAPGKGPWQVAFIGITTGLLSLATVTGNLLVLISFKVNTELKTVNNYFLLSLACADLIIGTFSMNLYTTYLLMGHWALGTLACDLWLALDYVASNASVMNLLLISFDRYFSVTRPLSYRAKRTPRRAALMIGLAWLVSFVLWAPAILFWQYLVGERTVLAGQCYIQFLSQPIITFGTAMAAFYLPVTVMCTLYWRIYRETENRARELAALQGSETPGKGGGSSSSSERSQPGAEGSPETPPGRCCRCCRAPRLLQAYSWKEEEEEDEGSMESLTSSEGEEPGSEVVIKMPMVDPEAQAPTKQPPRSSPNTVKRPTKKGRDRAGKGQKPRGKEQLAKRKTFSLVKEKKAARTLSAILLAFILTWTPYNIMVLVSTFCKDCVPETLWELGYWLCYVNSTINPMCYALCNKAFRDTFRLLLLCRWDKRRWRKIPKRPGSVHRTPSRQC
Method in brief: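 Intracellular calcium is tracked by Fluo-4 fluorescence at 37 °C in M1R-CHOk1 cells, with compounds dispensed automatically once baseline is taken. Buffer is HBSS with 20 mM HEPES, pH 7.4, plus 2.5 mM probenecid.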

GPR139 [2] = target: T2, GPR139 (Homo sapiens, UniProt Q6DWJ6); experiment: Ca2+ mobilization assay, agonist mode, stable GPR139-CHOk1 cell line; conditions: for Emax: Supplementary Table 2, normalized to Lundbeck Cmp 1a, mean ± SEM, read-out: Emax (%) Ca2+
T2 sequence (Q6DWJ6 1-353): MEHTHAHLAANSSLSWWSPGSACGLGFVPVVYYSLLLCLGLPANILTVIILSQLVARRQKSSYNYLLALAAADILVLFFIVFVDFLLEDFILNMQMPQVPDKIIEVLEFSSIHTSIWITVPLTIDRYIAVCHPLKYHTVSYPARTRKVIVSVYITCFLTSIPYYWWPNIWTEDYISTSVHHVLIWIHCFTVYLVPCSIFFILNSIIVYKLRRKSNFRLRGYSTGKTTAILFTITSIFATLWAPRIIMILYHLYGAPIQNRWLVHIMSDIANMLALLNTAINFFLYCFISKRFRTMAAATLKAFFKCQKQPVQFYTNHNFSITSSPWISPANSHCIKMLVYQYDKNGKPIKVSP
Method in brief: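 Agonist activity of compounds is assessed in stably transfected CHO-K1 cells using the calcium dye Fluo-4 at 37 °C in HEPES-buffered HBSS (pH 7.4). Efficacy is expressed relative to the reference agonist Lundbeck Cmp 1a, set as 100%.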

GPR139 [3] = target: T2, GPR139; experiment: Ca2+ mobilization assay, antagonist mode (EC80 800 nM Lundbeck Cmp 1a after 20 min preincubation), GPR139-CHOk1
Method in brief: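 Fluo-4-loaded GPR139-CHOk1 cells in HEPES-buffered HBSS (pH 7.4, 2.5 mM probenecid) given test compounds at 10 µM, then after 20 min challenged with 800 nM Lundbeck Cmp 1a (EC80). Calcium fluorescence read at 37 °C, 485/525 nm.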

[4] = GPR139-CHOk1, read-out: EC50, Ca2+ mobilization
[5] = log [Compound] M -4.5, replicate experiments
[6] = log [Compound] M -5.0, replicate experiments
[7] = log [Compound] M -5.5, replicate experiments
[8] = log [Compound] M -6.0, replicate experiments
[9] = log [Compound] M -6.5, replicate experiments
[10] = log [Compound] M -7.0, replicate experiments
[11] = log [Compound] M -7.5, replicate experiments
[12] = log [Compound] M -8.0, replicate experiments
[13] = log [Compound] M -8.5, replicate experiments
[14] = log [Compound] M -9.0, replicate experiments

SMILES	EC50 (GPR139 [2]; [4])	Emax (GPR139 [2])	Ca2+ signal (% of Cmp 1a) (GPR139 [2]; [5])	Ca2+ signal (% of Cmp 1a) (GPR139 [2]; [6])	Ca2+ signal (% of Cmp 1a) (GPR139 [2]; [7])	Ca2+ signal (% of Cmp 1a) (GPR139 [2]; [8])	Ca2+ signal (% of Cmp 1a) (GPR139 [2]; [9])	Ca2+ signal (% of Cmp 1a) (GPR139 [2]; [10])	Ca2+ signal (% of Cmp 1a) (GPR139 [2]; [11])	Ca2+ signal (% of Cmp 1a) (GPR139 [2]; [12])	Ca2+ signal (% of Cmp 1a) (GPR139 [2]; [13])	Ca2+ signal (% of Cmp 1a) (GPR139 [2]; [14])	further results
CC(NC(=O)Cn1cncc(-c2ccccc2)c1=O)c1ccccc1 (stereo not shown) [Compound 5, C[C@@H](NC(=O)CN1C=NC=C(C=2C=CC=CC2)C1=O)C=3C=CC=CC3]	3600 nM	88 ± 4%	91 % of Cmp 1a and 74 % of Cmp 1a and 86 % of Cmp 1a	75 % of Cmp 1a and 51 % of Cmp 1a and 76 % of Cmp 1a	60 % of Cmp 1a and 41 % of Cmp 1a and 50 % of Cmp 1a	23 % of Cmp 1a (2×) and 24 % of Cmp 1a	16 % of Cmp 1a (2×) and 0.619 % of Cmp 1a	11 % of Cmp 1a	9 % of Cmp 1a and 2.21 % of Cmp 1a and 7 % of Cmp 1a	3.64 % of Cmp 1a and 0.518 % of Cmp 1a and 5.27 % of Cmp 1a	13 % of Cmp 1a and 0.00547 % of Cmp 1a and 8 % of Cmp 1a	7 % of Cmp 1a and -1.29 % of Cmp 1a and 10 % of Cmp 1a	Ca2+ signal (% of Carbachol) ([1]; individual replicates (Supplementary Figure 2)): -15 % of Carbachol and -5 % of Carbachol; Ca2+ signal (% of Cmp 1a) (GPR139 [2]; 0.1 µM, individual replicates (Supplementary Figure 3)): 0.9 % of Cmp 1a and -12.1 % of Cmp 1a; Ca2+ signal (% of Cmp 1a) (GPR139 [2]; 1 µM, individual replicates (Supplementary Figure 3)): 17.5 % of Cmp 1a and 11.9 % of Cmp 1a; Ca2+ signal (% of Cmp 1a) (GPR139 [2]; 10 µM, individual replicates (Supplementary Figure 3)): 52.6 % of Cmp 1a and 31.9 % of Cmp 1a; Ca2+ signal (% of Cmp 1a) (GPR139 [2]; Agonist mode, individual replicates (Supplementary Figure 1)): 71 % of Cmp 1a and 78 % of Cmp 1a and 63 % of Cmp 1a; Ca2+ signal (% of Cmp 1a) (GPR139 [2]; primary screen, 10 µM compound, agonist mode, three columns = independent experiments): 71 % of Cmp 1a and 78 % of Cmp 1a and 63 % of Cmp 1a; Ca2+ signal (% of Cmp 1a) (GPR139 [3]; individual replicates (Supplementary Figure 1)): 38.6236 % of Cmp 1a and 37.7276 % of Cmp 1a and 30.4652 % of Cmp 1a
COc1cc(OC)cc(C(=O)NNC(=O)Nc2cccc3ccccc23)c1 [Lundbeck Cmp 1a, reference compound]	200 nM	108 ± 3%	104 % of Cmp 1a and 101 % of Cmp 1a and 98 % of Cmp 1a and 116 % of Cmp 1a and 117 % of Cmp 1a and 88 % of Cmp 1a and 112 % of Cmp 1a and 95 % of Cmp 1a and 103 % of Cmp 1a and 94 % of Cmp 1a	104 % of Cmp 1a and 115 % of Cmp 1a and 107 % of Cmp 1a and 118 % of Cmp 1a and 110 % of Cmp 1a and 88 % of Cmp 1a and 112 % of Cmp 1a and 119 % of Cmp 1a	96 % of Cmp 1a and 113 % of Cmp 1a and 100 % of Cmp 1a and 95 % of Cmp 1a and 84 % of Cmp 1a and 88 % of Cmp 1a and 114 % of Cmp 1a and 103 % of Cmp 1a and 108 % of Cmp 1a and 126 % of Cmp 1a	81 % of Cmp 1a and 96 % of Cmp 1a and 87 % of Cmp 1a and 69 % of Cmp 1a and 82 % of Cmp 1a and 73 % of Cmp 1a and 84 % of Cmp 1a and 75 % of Cmp 1a and 88 % of Cmp 1a and 109 % of Cmp 1a	63 % of Cmp 1a and 62 % of Cmp 1a and 65 % of Cmp 1a and 67 % of Cmp 1a and 53 % of Cmp 1a and 60 % of Cmp 1a and 76 % of Cmp 1a and 64 % of Cmp 1a and 68 % of Cmp 1a	38 % of Cmp 1a (2×) and 39 % of Cmp 1a	20 % of Cmp 1a and 15 % of Cmp 1a and 23 % of Cmp 1a and 11 % of Cmp 1a and 2.33 % of Cmp 1a and 22 % of Cmp 1a and 19 % of Cmp 1a and 29 % of Cmp 1a and 16 % of Cmp 1a and 35 % of Cmp 1a	1.56 % of Cmp 1a and 5 % of Cmp 1a and 17 % of Cmp 1a and -13 % of Cmp 1a and 8 % of Cmp 1a and 12 % of Cmp 1a and 9 % of Cmp 1a and 3 % of Cmp 1a and 6.33 % of Cmp 1a	-0.447 % of Cmp 1a and 1.52 % of Cmp 1a and 10 % of Cmp 1a and -20 % of Cmp 1a and 2.33 % of Cmp 1a and 11 % of Cmp 1a and 4.67 % of Cmp 1a and -2 % of Cmp 1a and -1 % of Cmp 1a and 5 % of Cmp 1a and 23 % of Cmp 1a	-1.54 % of Cmp 1a and 0.497 % of Cmp 1a and 16 % of Cmp 1a and -12 % of Cmp 1a and 8 % of Cmp 1a and 9 % of Cmp 1a and 3.33 % of Cmp 1a and 13 % of Cmp 1a and 11 % of Cmp 1a	Ca2+ signal (% of Carbachol) ([1]; 10 µM, individual replicates (Supplementary Figure 2)): -13 % of Carbachol and 8 % of Carbachol; Ca2+ signal (% of Carbachol) ([1]; 10 µM, individual replicates (Supplementary Figure 5)): -0.591 % of Carbachol and 1.3 % of Carbachol and 0.449 % of Carbachol; EC50 (GPR139 [2]; Supplementary Table 7, enantiopure compounds, read-out: pEC50, Ca2+ mobilization (converted)): 158 nM; Ca2+ signal (% of Cmp 1a) (GPR139 [3]; 10 µM compound + 800 nM Cmp 1a, individual replicates): 6.33 % of Cmp 1a and 14 % of Cmp 1a and 11 % of Cmp 1a; Ca2+ signal (% of Cmp 1a) (GPR139 [3]; Vehicle + 800 nM Cmp 1a, individual replicates): 92 % of Cmp 1a and 84 % of Cmp 1a and 83 % of Cmp 1a; Ca2+ signal (% of Cmp 1a) (GPR139 [3]; Vehicle + 10 µM Cmp 1a, individual replicates): 100 % of Cmp 1a
